# Data taken from patent US20050215625A9, “Combination therapy for anticoagulation” (priority 2003, published 2005).
# Read-outs that look alike come from different tables or passages of the source.
# Tested on: anticoagulation level (International Normalized Ratio)
# Conditions: for variation from low to high doses of warfarin / warfarin dose, low to high: across the first 24 measures
# Experimental: Adult anticoagulation patients presenting to the practice site were informed of the study, and the opportunity to be a test subject. Subjects were required to complete a study entry data interview, provide informed consent, and present to the clinic once to twice weekly for INR evaluation. The control group and a second group (the algorithm group) of patients were provided warfarin alone as an anticoagulation agent, while the study group patients received warfarin and 100 μg of vitamin K in a single gelatin capsule from a single pharmacy. […] The study received clearance from the St. Mary's Medical Center Institutional Review Board, Galesburg, Ill.
# An initial study interview was conducted and identified a patient's sex, age, indication for anticoagulation, and prescription and nonprescription medication usage. Those who were appropriate for study and provided consent were required to present to the clinic for once or twice weekly INR testing.
# The control group (N=6) received their warfarin dosed by conventional tablet forms and presented to the office at least weekly for INR labs (more often if dosage changes were required).
# The algorithm group (N=6) received their warfarin based upon an algorithm devised by the investigators to standardize the adjustments and the dosing of warfarin in smaller increments than those available in conventional dosages of oral medication (tablets). The algorithm specified dosages of warfarin other than those used by the manufacturer, in order for the prescribing physician to specify smaller incremental dosage changes than those permitted with the standard dosages available.
# The purpose of having the algorithm group as a part of the study was to determine if the algorithm played a significant role in reducing nontherapeutic anticoagulation intervals. […] If a dosing adjustment was required due to a nontherapeutic INR, the dose of warfarin would be adjusted in a fixed increment and the time of the next INR set by reducing the interval.
# The second theory behind the algorithm is that at the lower warfarin doses, the interval between easily taken amounts is a significant dose change. For example, the increase in dosage between 1 mg and 2 mg daily is a 100 percent dose increase. In comparison, the increase between the 4 mg tab and the 5 mg tab is a 25 percent dose increase. In order to create smaller dosage steps between doses of warfarin, the various available tablets were halved along their scoring lines and the appropriate amount was placed into a gelatin capsule for easy daily dosing. For instance, a dose of 1.75 mg warfarin required one-half of a 2.5 mg tablet and one-half of a 1 mg tab to be placed into a gelatin capsule. A cooperating compounding pharmacist placed the daily doses of warfarin into gelatin capsules for the use of the patients in the algorithm group.
# The study group (N=12) received warfarin combined with 100 μg of vitamin K compounded into a gelatin capsule by the compounding pharmacist. The warfarin was dosed by the study algorithm, described above. Patients who randomized to this group received their current dose of warfarin along with the dose of vitamin K in the daily gelatin capsule. And as the INR fluctuated, the dose of warfarin was adjusted by the algorithm.
# The combination of warfarin and vitamin K was accomplished by adding fixed amounts of each into an orally dosed form. The doses of warfarin used within the study protocol were (in milligrams): 0.5, 1, 1.25, 1.5, 1.75, 2.0, 2.25, 2.5, 2.75, 3.0, 3.25, 3.5, 3.75, 4.0, 4.5, 5.0, 5.5, 6.0, 6.5, 7.0, 7.5, 8.0, 8.5, 9.0, 9.5, 10, 11, 12, 13, 15.
# [1] = algorithm only arm, average dose
# [2] = combination capsule group (dosed by algorithm) or standard care group
smiles,measurement,setting,value
"CC(=O)CC(c1ccccc1)c1c(O)c2ccccc2oc1=O (centres unmarked) [warfarin alone, 3-(_-acetonylbenzyl)-4-hydroxycoumarin]",variation from low to high doses of warfarin,[1],25.3%
same,"warfarin dose, low to high",[1],4.71-6.30 mgs
same,variation from low to high doses of warfarin,[2],36.9%
same,"warfarin dose, low to high",[2],3.50-5.55 mgs
same,persons with a dosage change in their anticoagulation after a change in concomitant medical therapy,"control and algorithm arms, includes two subjects who had this occur twice",Eight
same,number of clinically safe anticoagulation levels (INR level between 2.0 and 3.0),"over six months, INR at least weekly, up to 35 INR measurements, combination group N=12 (100 μg vitamin K) vs control and algorithm groups combined, p=0.032",14.83
same,number of medically safe anticoagulation levels (INR level between 1.8 and 3.5),"over six months, INR at least weekly, combination group N=12 vs control and algorithm groups combined, p=0.048",18.42
same,number of medically unsafe INRs (INR less than 1.5 or greater than 4.9),"over six months, combination group N=12 vs control and algorithm groups combined, p=0.054, not significant",22.00
